Like-named read-outs stand apart in the source and are kept apart here. Each block holds one molecule with its values, some of them ahead of it.
Tests used:
Type in all cases: biochemical
CDK6/CCND1 = CDK6/CCND1 (Homo sapiens, UniProt Q00534); assay: CDK6 homogeneous time-resolved fluorescence (HTRF) kinase assay; conditions: CDK6/CCND
How it was run: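 Recombinant CDK6/CCND1 (1 nM final) was preincubated with compound for 20 min at 23 °C in HEPES buffer with MgCl2, EGTA, DTT and Tween 20. Kinase reaction then ran 60 min at 23 °C with 1 mM ATP and 50 nM ULight-4E-BP1 (Thr37/46) peptide, and was stopped with EDTA.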

CDK2/CCNE1 = CDK2/CCNE1 (Homo sapiens, UniProt P24941); assay: CDK2 homogeneous time-resolved fluorescence (HTRF) kinase assay; conditions: CDK2/CCNE
How it was run: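 TR-FRET read-out (665 nm, or 665/615 ratio) of Eu-antibody detection of phospho-4E-BP1 (Thr37/46) ULight peptide. Enzyme 3 nM, ATP 1 mM, peptide 50 nM, 1% DMSO; 60 min reaction at 23 °C after 20 min compound preincubation. IC50 from 11-point half-log titrations, top typically 10 μM.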

CDK4/CCND3 = CDK4/CCND3 (Homo sapiens, UniProt P11802); assay: CDK4 homogeneous time-resolved fluorescence (HTRF) kinase assay; conditions: CDK4/CCND
Chain of CDK4/CCND3 (P11802 whole entry): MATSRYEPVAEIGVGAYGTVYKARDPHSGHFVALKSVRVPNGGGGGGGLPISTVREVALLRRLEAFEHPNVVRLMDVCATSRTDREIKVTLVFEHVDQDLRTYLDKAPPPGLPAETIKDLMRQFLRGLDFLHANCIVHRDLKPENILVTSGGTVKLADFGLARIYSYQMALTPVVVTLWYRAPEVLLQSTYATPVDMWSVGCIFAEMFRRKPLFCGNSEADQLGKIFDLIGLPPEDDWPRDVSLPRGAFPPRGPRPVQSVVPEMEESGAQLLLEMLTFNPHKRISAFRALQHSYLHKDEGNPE
Chain of CDK4/CCND3 (P30281 whole entry partner): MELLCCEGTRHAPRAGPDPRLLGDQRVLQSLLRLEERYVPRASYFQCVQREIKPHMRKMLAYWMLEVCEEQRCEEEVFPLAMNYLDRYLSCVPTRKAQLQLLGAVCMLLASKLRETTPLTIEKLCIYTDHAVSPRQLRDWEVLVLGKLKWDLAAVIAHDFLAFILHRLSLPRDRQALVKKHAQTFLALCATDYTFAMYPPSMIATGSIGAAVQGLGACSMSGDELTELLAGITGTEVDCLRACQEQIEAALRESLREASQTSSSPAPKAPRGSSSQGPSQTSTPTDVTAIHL
How it was run: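 HTRF kinase assay, CDK4/CCND3 1.5 nM, ATP 1 mM, ULight-4E-BP1 peptide 50 nM, 23 °C, 60 min reaction after 20 min preincubation. Eu-anti-pThr37/46 antibody detection. 11-pt half-log curves from 10 μM → IC50.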

CDK1/CCNB1 = CDK1/CCNB1 (Homo sapiens, UniProt P06493); assay: CDK1 homogeneous time-resolved fluorescence (HTRF) kinase assay; conditions: CDK1/CCNB
Chain of CDK1/CCNB1 (P06493 whole entry): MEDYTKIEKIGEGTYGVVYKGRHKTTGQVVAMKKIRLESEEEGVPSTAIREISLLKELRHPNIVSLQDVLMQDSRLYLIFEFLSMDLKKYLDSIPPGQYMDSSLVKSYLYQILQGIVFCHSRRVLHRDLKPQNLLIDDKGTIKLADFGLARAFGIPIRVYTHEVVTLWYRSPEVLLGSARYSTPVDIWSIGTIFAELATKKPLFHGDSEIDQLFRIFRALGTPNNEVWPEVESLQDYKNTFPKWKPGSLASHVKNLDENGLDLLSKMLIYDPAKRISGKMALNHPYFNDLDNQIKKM
Chain of CDK1/CCNB1 (P14635 whole entry partner): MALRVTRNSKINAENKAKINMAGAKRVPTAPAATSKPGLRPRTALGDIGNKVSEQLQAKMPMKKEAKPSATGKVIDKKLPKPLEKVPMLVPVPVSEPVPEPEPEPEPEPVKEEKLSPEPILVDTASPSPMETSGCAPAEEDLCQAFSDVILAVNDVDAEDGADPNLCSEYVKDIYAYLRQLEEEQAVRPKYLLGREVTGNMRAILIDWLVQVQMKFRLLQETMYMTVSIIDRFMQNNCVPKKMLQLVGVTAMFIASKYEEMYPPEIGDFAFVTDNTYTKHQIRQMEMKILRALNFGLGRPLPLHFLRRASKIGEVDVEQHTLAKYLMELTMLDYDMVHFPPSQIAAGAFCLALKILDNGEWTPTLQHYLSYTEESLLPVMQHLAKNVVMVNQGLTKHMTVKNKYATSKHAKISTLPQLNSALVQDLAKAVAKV
How it was run: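 Kinase activity is measured as Lance signal (665 nm, or 665/615 nm ratio) from europium-labelled anti-phospho-Thr37/46 antibody binding ULight-4E-BP1 peptide. Reactions contain 0.5 nM enzyme, 1 mM ATP, 1% DMSO and run 60 min at 23 °C before EDTA quench.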

[1] = >250 nM, 1 mM ATP, read-out: CDK6/CCND IC50, >250 nM
[2] = 25-250 nM, read-out: CDK2/CCNE IC50, 25-250 nM
[3] = >250 nM, read-out: CDK4/CCND IC50, >250 nM
[4] = >250 nM, read-out: CDK1/CCNB IC50 >250 nM
[5] = >250 nM marked x, read-out: CDK6/CCND IC50 >250 nM
[6] = >250 nM marked x, read-out: CDK4/CCND IC50 >250 nM
[7] = >250 nM marked x, read-out: CDK1/CCNB IC50 >250 nM
[8] = x = IC50 >250 nM, read-out: CDK6/CCND IC50 (>250 nM column)
[9] = x = IC50 <25 nM, read-out: CDK2/CCNE IC50 (<25 nM)
[10] = x = IC50 >250 nM, read-out: CDK4/CCND IC50 (>250 nM column)
[11] = x = IC50 >250 nM, read-out: CDK1/CCNB IC50 (>250 nM column)
[12] = 25-250 nM, 1 mM ATP, read-out: CDK6/CCND IC50, 25-250 nM
[13] = <25 nM, read-out: CDK2/CCNE IC50, <25 nM
[14] = 25-250 nM, read-out: CDK4/CCND IC50, 25-250 nM
[15] = <25 nM, read-out: CDK2/CCNE IC50 <25 nM
[16] = 25-250 nM marked x, read-out: CDK4/CCND IC50 25-250 nM

Chain of CDK6/CCND1 (Q00534 whole entry): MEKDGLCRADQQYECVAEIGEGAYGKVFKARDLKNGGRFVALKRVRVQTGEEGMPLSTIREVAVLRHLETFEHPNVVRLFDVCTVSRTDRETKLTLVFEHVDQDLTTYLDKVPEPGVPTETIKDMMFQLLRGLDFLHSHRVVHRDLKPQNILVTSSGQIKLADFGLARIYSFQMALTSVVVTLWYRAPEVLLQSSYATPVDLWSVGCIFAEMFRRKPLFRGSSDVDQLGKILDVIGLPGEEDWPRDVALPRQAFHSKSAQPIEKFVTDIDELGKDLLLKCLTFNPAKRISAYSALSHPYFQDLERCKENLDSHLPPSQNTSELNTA
Chain of CDK6/CCND1 (P24385 whole entry partner): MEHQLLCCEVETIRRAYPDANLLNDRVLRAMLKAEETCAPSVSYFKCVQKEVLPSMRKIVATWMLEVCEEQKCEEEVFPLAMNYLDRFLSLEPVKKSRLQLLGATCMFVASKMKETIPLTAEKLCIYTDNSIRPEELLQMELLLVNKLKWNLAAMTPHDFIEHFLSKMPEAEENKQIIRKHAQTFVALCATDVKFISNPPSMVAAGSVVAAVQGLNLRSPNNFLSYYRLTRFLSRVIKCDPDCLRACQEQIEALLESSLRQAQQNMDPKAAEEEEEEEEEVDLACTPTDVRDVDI

Compound: CS(=O)(=O)c1ccc(Nc2cc3c(C4CCN(Cc5ccccc5)C4)nccc3cn2)cc1 (racemic) [Ex 230, 5-(1-benzylpyrrolidin-3-yl)-N-(4-(methylsulfonyl)phenyl)-2,6-naphthyridin-3-amine]
IC50 (CDK6/CCND1; [5]): > 250 nM
IC50 (CDK2/CCNE1; >250 nM marked x, read-out: CDK2/CCNE IC50 >250 nM): > 250 nM
IC50 (CDK4/CCND3; [6]): > 250 nM
IC50 (CDK1/CCNB1; [7]): > 250 nM

Compound: CS(=N)(=O)c1ccc(Nc2cc3c(C#Cc4ccc(=O)[nH]n4)nccc3cn2)cc1 (racemic) [Ex 497, 6-((7-((4-(S-methylsulfonimidoyl)phenyl)amino)-2,6-naphthyridin-1-yl)ethynyl)pyridazin-3(2H)-one]
IC50 (CDK6/CCND1; [8]): > 250 nM
IC50 (CDK2/CCNE1; [9]): < 25 nM
IC50 (CDK4/CCND3; [10]): > 250 nM
IC50 (CDK1/CCNB1; [11]): > 250 nM

Compound: CC1NCCc2cc(-c3nccc4cnc(Nc5ccc(S(C)(=O)=O)cc5)cc34)ccc21 (single isomer, unassigned) [Example 599, 5-(1-methyl-1,2,3,4-tetrahydroisoquinolin-6-yl)-N-(4-(methylsulfonyl)phenyl)-2,6-naphthyridin-3-amine]
IC50 (CDK6/CCND1; [8]): > 250 nM
IC50 (CDK2/CCNE1; x = IC50 25-250 nM, read-out: CDK2/CCNE IC50 (25-250 nM)): 25 to 250 nM
IC50 (CDK4/CCND3; [10]): > 250 nM
IC50 (CDK1/CCNB1; [11]): > 250 nM

Compound: N=S(=O)(c1ccc(Nc2cc3c(C#Cc4ccc5c(c4)NC(=O)C54CC4)nccc3cn2)c(F)c1)C1COC1 (single isomer, unassigned) [Example 275, 6′-((7-((2-fluoro-4-(oxetane-3-sulfonimidoyl)phenyl)amino)-2,6-naphthyridin-1-yl)ethynyl)spiro[cyclopropane-1,3′-indolin]-2′-one]
IC50 (CDK6/CCND1; [5]): > 250 nM
IC50 (CDK2/CCNE1; [15]): < 25 nM
IC50 (CDK4/CCND3; [16]): 25 to 250 nM
IC50 (CDK1/CCNB1; [7]): > 250 nM

Compound: CS(=O)(=O)c1ccc(Nc2cc3c(C#Cc4cc(O)cc(F)c4)nccc3cn2)cc1 [Ex 911, 3-fluoro-5-((7-((4-(methylsulfonyl)phenyl)amino)-2,6-naphthyridin-1-yl)ethynyl)phenol]
IC50 (CDK6/CCND1; [1]): > 250 nM
IC50 (CDK2/CCNE1; [2]): 25 to 250 nM
IC50 (CDK4/CCND3; [3]): > 250 nM
IC50 (CDK1/CCNB1; [4]): > 250 nM

Compound: CCS(=N)(=O)c1ccc(Nc2cc3c(C#Cc4ccc5c(c4)NC(=O)C54CC4)nccc3cn2)c(OC)c1 (single isomer, unassigned) [Ex 289, 6'-((7-((4-(ethylsulfonimidoyl)-2-methoxyphenyl)amino)-2,6-naphthyridin-1-yl)ethynyl)spiro[cyclopropane-1,3'-indolin]-2'-one]
IC50 (CDK6/CCND1; [5]): > 250 nM
IC50 (CDK2/CCNE1; [15]): < 25 nM
IC50 (CDK4/CCND3; [6]): > 250 nM
IC50 (CDK1/CCNB1; [7]): > 250 nM

Compound: CS(=O)(=O)N1CCC(Nc2cc3c(N4CCC(C#N)CC4)nccc3cn2)CC1 [Ex 37, 1-(7-((1-(methylsulfonyl)piperidin-4-yl)amino)-2,6-naphthyridin-1-yl)piperidine-4-carbonitrile]
IC50 (CDK6/CCND1; 25-250 nM marked x, read-out: CDK6/CCND IC50 25-250 nM): 25 to 250 nM
IC50 (CDK2/CCNE1; [15]): < 25 nM
IC50 (CDK4/CCND3; [16]): 25 to 250 nM
IC50 (CDK1/CCNB1; [7]): > 250 nM

Compound: CN1CCN(c2ccc(C#Cc3nccc4cnc(Nc5ccc(S(N)(=O)=O)cc5)cc34)cc2)CC1 [Ex 876, 4-((5-((4-(4-methylpiperazin-1-yl)phenyl)ethynyl)-2,6-naphthyridin-3-yl)amino)benzenesulfonamide]
IC50 (CDK6/CCND1; [12]): 25 to 250 nM
IC50 (CDK2/CCNE1; [13]): < 25 nM
IC50 (CDK4/CCND3; [14]): 25 to 250 nM
IC50 (CDK1/CCNB1; 25-250 nM, read-out: CDK1/CCNB IC50, 25-250 nM): 25 to 250 nM

Compound: CS(=O)(=O)c1ccc(Nc2cc3c(C#Cc4ccc(C#N)cc4N)nccc3cn2)cc1 [Ex 567, 3-amino-4-((7-((4-(methylsulfonyl)phenyl)amino)-2,6-naphthyridin-1-yl)ethynyl)benzonitrile]
IC50 (CDK6/CCND1; [8]): > 250 nM
IC50 (CDK2/CCNE1; [9]): < 25 nM
IC50 (CDK4/CCND3; [10]): > 250 nM
IC50 (CDK1/CCNB1; [11]): > 250 nM

Compound: CS(=O)(=O)c1ccc(Nc2cc3c(C#Cc4c(N)ncnc4Cl)nccc3cn2)cc1 [Example 510, 5-((4-amino-6-chloropyrimidin-5-yl)ethynyl)-N-(4-(methylsulfonyl)phenyl)-2,6-naphthyridin-3-amine]
IC50 (CDK6/CCND1; [8]): > 250 nM
IC50 (CDK2/CCNE1; [9]): < 25 nM
IC50 (CDK4/CCND3; [10]): > 250 nM
IC50 (CDK1/CCNB1; [11]): > 250 nM

The next lines start with the values.

IC50 (CDK6/CCND1; [1]): > 250 nM
IC50 (CDK2/CCNE1; [2]): 25 to 250 nM
IC50 (CDK4/CCND3; [3]): > 250 nM
IC50 (CDK1/CCNB1; [4]): > 250 nM
Compound: Cc1c(-c2nccc3cnc(Nc4ccc(S(C)(=O)=O)cc4Cl)cc23)ccc2c1cnn2CC(C)(C)O [Ex 847, 1-(5-(7-((2-chloro-4-(methylsulfonyl)phenyl)amino)-2,6-naphthyridin-1-yl)-4-methyl-1H-indazol-1-yl)-2-methylpropan-2-ol]

IC50 (CDK6/CCND1; [12]): 25 to 250 nM
IC50 (CDK2/CCNE1; [13]): < 25 nM
IC50 (CDK4/CCND3; [14]): 25 to 250 nM
IC50 (CDK1/CCNB1; [4]): > 250 nM
Compound: Cc1c(-c2nccc3cnc(Nc4ccc(S(=O)(=O)N5CCOCC5)cc4)cc23)ccc2c1cnn2CC(C)(C)O [Ex 922, 2-methyl-1-(4-methyl-5-(7-((4-(morpholinosulfonyl)phenyl)amino)-2,6-naphthyridin-1-yl)-1H-indazol-1-yl)propan-2-ol]

IC50 (CDK6/CCND1; CDK6/CCND IC50 25-250 nM, 25-250 nM marked x): 25 to 250 nM
IC50 (CDK2/CCNE1; CDK2/CCNE IC50 25-250 nM, 25-250 nM marked x): 25 to 250 nM
IC50 (CDK4/CCND3; CDK4/CCND IC50 25-250 nM, 25-250 nM marked x): 25 to 250 nM
IC50 (CDK1/CCNB1; CDK1/CCNB IC50 >250 nM, >250 nM marked x): > 250 nM
Compound: CS(=O)(=O)c1ccc(Nc2cc3c(C4=CCNCC4)nccc3cn2)cc1 [Ex 146, N-(4-(methylsulfonyl)phenyl)-5-(1,2,3,6-tetrahydropyridin-4-yl)-2,6-naphthyridin-3-amine]

IC50 (CDK6/CCND1; [1]): > 250 nM
IC50 (CDK2/CCNE1; [13]): < 25 nM
IC50 (CDK4/CCND3; [3]): > 250 nM
IC50 (CDK1/CCNB1; [4]): > 250 nM
Compound: CC[C@H](C)NS(=O)(=O)c1ccc(Nc2cc3c(-c4ccc5c(cnn5CC(C)(C)O)c4C)nccc3cn2)cc1 [Ex 722, (S)-N-(sec-butyl)-4-((5-(1-(2-hydroxy-2-methylpropyl)-4-methyl-1H-indazol-5-yl)-2,6-naphthyridin-3-yl)amino)benzenesulfonamide]

IC50 (CDK6/CCND1; [1]): > 250 nM
IC50 (CDK2/CCNE1; [13]): < 25 nM
IC50 (CDK4/CCND3; [3]): > 250 nM
IC50 (CDK1/CCNB1; [4]): > 250 nM
Compound: Cc1c(-c2nccc3cnc(Nc4ccc(NS(=O)(=O)c5ccc(Cl)cn5)cc4)cc23)ccc2c1cnn2CC(C)(C)O [Ex 777, 5-chloro-N-(4-((5-(1-(2-hydroxy-2-methylpropyl)-4-methyl-1H-indazol-5-yl)-2,6-naphthyridin-3-yl)amino)phenyl)pyridine-2-sulfonamide]

IC50 (CDK6/CCND1; [1]): > 250 nM
IC50 (CDK2/CCNE1; [2]): 25 to 250 nM
IC50 (CDK4/CCND3; [3]): > 250 nM
IC50 (CDK1/CCNB1; [4]): > 250 nM
Compound: COc1ccc(NS(=O)(=O)c2ccc(Nc3cc4c(-c5ccc6c(cnn6CC(O)(C(F)(F)F)C(F)(F)F)c5C)nccc4cn3)cc2)nc1 [Ex 719, N-(5-methoxypyridin-2-yl)-4-((5-(4-methyl-1-(3,3,3-trifluoro-2-hydroxy-2-(trifluoromethyl)propyl)-1H-indazol-5-yl)-2,6-naphthyridin-3-yl)amino)benzenesulfonamide]

IC50 (CDK6/CCND1; [1]): > 250 nM
IC50 (CDK2/CCNE1; [13]): < 25 nM
IC50 (CDK4/CCND3; [3]): > 250 nM
IC50 (CDK1/CCNB1; [4]): > 250 nM
Compound: Cc1c(-c2nccc3cnc(Nc4ccc(S(=O)(=O)Nc5ncc(N6CCOCC6)cn5)cc4)cc23)ccc2c1cnn2CC(C)(C)O [Ex 850, 4-((5-(1-(2-hydroxy-2-methylpropyl)-4-methyl-1H-indazol-5-yl)-2,6-naphthyridin-3-yl)amino)-N-(5-morpholinopyrimidin-2-yl)benzenesulfonamide]

From patent US20260325533A1, “CDK INHIBITOR COMPOUNDS” (ALEKSIA THERAPEUTICS, INC., priority 2023, published 2026)
